Patent US9309191B2 (priority 2013, dated 2016)

Tested on: Magnaporthe grisea
Assay type: in vivo
Conditions: rice (Nipponbare); for lesion area of treated plants relative to the lesion area in the non-treated plant: 200 ppm foliar spray, contact with affected seedlings for 6 days; for Lesion Area (%): Concentration 200 ppm foliar spray, table

SMILES | lesion area of treated plants relative to the lesion area in the non-treated plant | Lesion Area (%)
Cc1cc(OCC2CC2)c(C)cc1/N=C/N(C)C [1-17, N′-(4-cyclopropylmethoxy-2,5-dimethylphenyl)-N,N-dimethylformamidine] | ≤ 10% | 1-10%
Cc1cc(OCC2CCCCC2)c(C)cc1N=CN(C)C [Compound 267, N′-(4-cyclohexylmethoxy-2,5-dimethylphenyl)-N,N-dimethylformamidine] | ≤ 50% | 31-50%
